# Measured values published in ChEMBL document CHEMBL4834464, “Fragment-based Scaffold Hopping: Identification of Potent, Selective, and Highly Soluble Bromo and Extra Terminal Domain (BET) Second Bromodomain (BD2) Inhibitors” (J Med Chem, 2021).
# Tests used:
# [1] = Half life in Beagle dog at 0.5 mg/kg, iv and 1 mg/kg, po measured up to 7 hrs by LC-MS/MS analysis; type: ADME, organism-based, Canis lupus familiaris; conditions: in vivo
# [2] = Distribution coefficient, logD of the compound by chromatography; type: physicochemical; conditions: octanol/water
# [3] = Oral bioavailability in Beagle dog at 1 mg/kg measured up to 7 hrs by LC-MS/MS analysis; type: ADME, organism-based, Canis lupus familiaris; conditions: in vivo
# [4] = Volume of distribution at steady state in Beagle dog at 0.5 mg/kg, iv and 1 mg/kg, po measured up to 7 hrs by LC-MS/MS analysis; type: ADME, organism-based, Canis lupus familiaris; conditions: in vivo, read-out: Vdss
# [5] = Oral bioavailability in male Wistar Han rat at 3 mg/kg measured up to 7 hrs by LC-MS/MS analysis; type: ADME, organism-based; conditions: in vivo
# [6] = Volume of distribution at steady state in male Wistar Han rat at 1 mg/kg, iv and 3 mg/kg, po measured up to 7 hrs by LC-MS/MS analysis; type: ADME, organism-based; conditions: in vivo, read-out: Vdss
# [7] = Permeability of compound by AMP assay; type: ADME; conditions: not told; read-out: permeability
# [8] = Intrinsic clearance in Wistar han rat hepatocytes measured per gram of tissue incubated for 60 mins by LC-MS/MS method; type: ADME, cell-based, Hepatocyte; conditions: 1 h
# [9] = Intrinsic clearance in human hepatocytes measured per gram of tissue incubated for 120 mins by LC-MS/MS method; type: ADME, cell-based, Hepatocyte; conditions: 2 h
# [10] = Solubility of the compound by CLND assay; type: physicochemical
# [11] = Solubility of the compound in FaSSIF at pH 6.5 using crystalline form of sample incubated for 16 hrs by HPLC gradient analysis; type: physicochemical
# [12] = Intrinsic clearance in dog hepatocytes measured per gram of tissue by LC-MS/MS method; type: ADME, cell-based, Canis lupus familiaris, Hepatocyte
# [13] = Half life in male Wistar Han rat at 1 mg/kg, iv and 3 mg/kg, po measured up to 7 hrs by LC-MS/MS analysis; type: ADME, organism-based; conditions: in vivo
# [14] = Blood clearance in Beagle dog at 0.5 mg/kg, iv and 1 mg/kg, po measured up to 7 hrs by LC-MS/MS analysis; type: ADME, organism-based, Canis lupus familiaris
# [15] = Blood clearance in male Wistar Han rat at 1 mg/kg, iv and 3 mg/kg, po measured up to 7 hrs by LC-MS/MS analysis; type: ADME, organism-based
# [16] = Volume of distribution at steady state in Beagle dog at 0.5 mg/kg, iv and 0.7 mg/kg, po measured up to 7 hrs by LC-MS/MS analysis; type: ADME, organism-based, Canis lupus familiaris; conditions: in vivo, read-out: Vdss
# [17] = Half life in Beagle dog at 0.5 mg/kg, iv and 0.7 mg/kg, po measured up to 7 hrs by LC-MS/MS analysis; type: ADME, organism-based, Canis lupus familiaris; conditions: in vivo
# [18] = Oral bioavailability in Beagle dog at 0.7 mg/kg measured up to 7 hrs by LC-MS/MS analysis; type: ADME, organism-based, Canis lupus familiaris; conditions: in vivo
# [19] = Kinetic solubility of compound […] using the charged aerosol detector (CAD) analysis; type: physicochemical; conditions: read-out: Kinetic_solubility
# [20] = Blood clearance in Beagle dog at 0.5 mg/kg, iv and 0.7 mg/kg, po measured up to 7 hrs by LC-MS/MS analysis; type: ADME, organism-based, Canis lupus familiaris
# [21] = Oral bioavailability in male Wistar Han rat measured up to 7 hrs by LC-MS/MS analysis; type: ADME, organism-based; conditions: in vivo
# [22] = Blood clearance in male Wistar Han rat measured up to 7 hrs by LC-MS/MS analysis; type: ADME
# [23] = Solubility of the compound in FaSSIF at pH 6.5 incubated for 16 hrs by HPLC gradient analysis; type: physicochemical; conditions: for solubility at 16 h: FaSSIF, pH 6.5; for solubility: simulated gi fluid, pH 6.5, 16 h
# [24] = Apparent permeability across apical to basolateral side in MDCK cells; type: ADME, cell-based, Canis lupus familiaris; conditions: dog
# [25] = Half life in male Wistar Han rat at 0.5 mg/kg, iv and 3 mg/kg, po measured up to 7 hrs by LC-MS/MS analysis; type: ADME, organism-based; conditions: in vivo
# [26] = Volume of distribution at steady state in male Wistar Han rat at 0.5 mg/kg, iv and 3 mg/kg, po measured up to 7 hrs by LC-MS/MS analysis; type: ADME, organism-based; conditions: in vivo, read-out: Vdss
# [27] = Blood clearance in male Wistar Han rat at 0.5 mg/kg, iv and 3 mg/kg, po measured up to 7 hrs by LC-MS/MS analysis; type: ADME, organism-based
structure (smiles),measurement,setting,value
CNC(=O)c1cc(C(=O)N[C@H]2[C@@H]3COC[C@@H]32)c([C@@H](C)c2ccccc2)o1,half-life,[1],5 h
same,chromatographic logD,[2],4.1
same,bioavailability,[3],100%
same,Vd,[4],1.1 L/kg
same,bioavailability,[5],100%
same,Vd,[6],2.7 L/kg
same,Papp,[7],20 ×10⁻⁶ cm/s
same,CLint,[8],< 0.8 mL/min/g
same,CLint,[9],< 0.45 mL/min/g
same,solubility kinetic,[10],≥ 131 µg/mL
same,solubility thermodynamic at 16 h,[11],980 µg/mL
same,CLint,[12],< 0.65 mL/min/g
same,half-life,[13],0.7 h
same,clearance,[14],2.9 mL/min/kg
same,clearance,[15],55 mL/min/kg
CNC(=O)c1cc(C(=O)N[C@H]2[C@@H]3C[C@@H](O)C[C@@H]32)n([C@@H](C)c2cccc(Cl)c2)n1,chromatographic logD,[2],3.4
same,Vd,[16],0.8 L/kg
same,bioavailability,[5],57%
same,Vd,[6],2.6 L/kg
same,half-life,[17],5 h
same,bioavailability,[18],58%
same,Papp,[7],19.7 ×10⁻⁶ cm/s
same,CLint,[8],1 mL/min/g
same,solubility kinetic,[19],175 µg/mL
same,CLint,[9],< 0.45 mL/min/g
same,CLint,[12],< 0.65 mL/min/g
same,clearance,[20],2 mL/min/kg
same,half-life,[13],2.9 h
same,clearance,[15],21 mL/min/kg
CNC(=O)c1cc(C(=O)N[C@H]2[C@@H]3COC[C@@H]32)cc2c1O[C@H](CF)[C@H]2c1ccccc1 [GSK973],chromatographic logD,[2],3.6
same,Papp,[7],16.5 ×10⁻⁶ cm/s
same,bioavailability,[21],48%
same,CLint,[9],3.6 mL/min/g
same,clearance,[22],180 mL/min/kg
CNC(=O)c1cc(C(=O)N[C@H]2CC[C@H](O)CC2)c([C@@H](C)c2cccc(Cl)c2)o1,half-life,[1],3.1 h
same,chromatographic logD,[2],3.5
same,bioavailability,[3],62%
same,Vd,[4],0.9 L/kg
same,bioavailability,[5],37%
same,Vd,[6],2.7 L/kg
same,Papp,[7],15 ×10⁻⁶ cm/s
same,CLint,[8],1.5 mL/min/g
same,solubility kinetic,[19],≥ 179 µg/mL
same,CLint,[9],< 0.45 mL/min/g
same,solubility at 16 h,[23],408 µg/mL
same,CLint,[12],0.71 mL/min/g
same,half-life,[13],0.9 h
same,clearance,[14],3.6 mL/min/kg
same,clearance,[15],55 mL/min/kg
CNC(=O)c1cc(C(=O)NC2CC2)cn(Cc2cccc3[nH]ccc23)c1=O,CLint,[9],2.9 mL/min/g
same,solubility at 16 h,[23],17 µg/mL
same,clearance,[22],128 mL/min/kg
CNC(=O)c1cc(C(=O)N[C@H]2CC[C@H](O)CC2)c([C@@H](C)c2ccccc2)o1,half-life,[1],5.2 h
same,chromatographic logD,[2],2.8
same,bioavailability,[3],84%
same,Vd,[4],0.8 L/kg
same,bioavailability,[5],72%
same,Vd,[6],2.1 L/kg
same,Papp,[7],4.2 ×10⁻⁶ cm/s
same,CLint,[8],0.8 mL/min/g
same,CLint,[9],< 0.5 mL/min/g
same,solubility kinetic,[10],≥ 184 µg/mL
same,Papp A→B,[24],4.9 ×10⁻⁶ cm/s
same,solubility,[23],827 µg/mL
same,CLint,[12],< 0.7 mL/min/g
same,half-life,[13],1.3 h
same,clearance,[14],1.9 mL/min/kg
same,clearance,[15],30 mL/min/kg
CC(=O)Nc1c(F)cc(C(=O)N[C@H]2CC[C@H](O)CC2)cc1O[C@@H](C)c1ccccc1 [GSK046],chromatographic logD,[2],2.8
same,solubility kinetic,[19],≥ 159 µg/mL
same,bioavailability,[21],31%
same,CLint,[9],2.8 mL/min/g
same,clearance,[22],82 mL/min/kg
CNC(=O)c1cc(C(=O)NC2CC2)cn(Cc2ccccc2)c1=O [GSK620],CLint,[9],3.1 mL/min/g
same,solubility at 16 h,[23],13 µg/mL
same,clearance,[22],75 mL/min/kg
CNC(=O)c1cc(C(=O)N[C@H]2[C@@H]3C[C@@H](O)C[C@@H]32)c([C@@H](C)c2ccccc2)o1,half-life,[1],2.5 h
same,chromatographic logD,[2],2.8
same,bioavailability,[3],58%
same,Vd,[4],1.1 L/kg
same,bioavailability,[5],67%
same,Vd,[6],2.3 L/kg
same,Papp,[7],4.5 ×10⁻⁶ cm/s
same,CLint,[8],< 0.8 mL/min/g
same,CLint,[9],< 0.45 mL/min/g
same,solubility kinetic,[10],≥ 172 µg/mL
same,solubility thermodynamic at 16 h,[11],736 µg/mL
same,CLint,[12],< 0.65 mL/min/g
same,half-life,[13],1.2 h
same,clearance,[14],5 mL/min/kg
same,clearance,[15],41 mL/min/kg
CNC(=O)c1cc(C(=O)N[C@H]2CC[C@H](OC)CC2)n([C@@H](C)c2ccccc2)n1,half-life,[1],4.1 h
same,chromatographic logD,[2],4.2
same,bioavailability,[3],95%
same,Vd,[4],2.1 L/kg
same,bioavailability,[5],80%
same,Vd,[6],2.4 L/kg
same,Papp,[7],36 ×10⁻⁶ cm/s
same,CLint,[8],1.7 mL/min/g
same,CLint,[9],< 0.45 mL/min/g
same,solubility kinetic,[10],≥ 161 µg/mL
same,solubility thermodynamic at 16 h,[11],355 µg/mL
same,CLint,[12],< 0.65 mL/min/g
same,half-life,[13],1 h
same,clearance,[14],6 mL/min/kg
same,clearance,[15],32 mL/min/kg
CNC(=O)c1cc(C(=O)N[C@H]2CC[C@H](O)CC2)n([C@@H](C)c2ccccc2)n1,half-life,[25],1.3 h
same,half-life,[1],9 h
same,chromatographic logD,[2],2.9
same,bioavailability,[3],30%
same,Vd,[4],0.9 L/kg
same,bioavailability,[5],58%
same,Papp,[7],8 ×10⁻⁶ cm/s
same,CLint,[8],0.9 mL/min/g
same,CLint,[9],< 0.5 mL/min/g
same,solubility kinetic,[10],≥ 180 µg/mL
same,Papp A→B,[24],4.1 ×10⁻⁶ cm/s
same,solubility,[23],366 µg/mL
same,CLint,[12],< 0.7 mL/min/g
same,Vd,[26],1.1 L/kg
same,clearance,[14],1 mL/min/kg
same,clearance,[27],13 mL/min/kg
